Experiments:
[1] = test system: HeLa xenograft; assay: In vivo NIR fluorescence imaging, HeLa xenograft-bearing nude mice
Protocol: (§1) To evaluate the tumor-targeting characteristics of DZ-TCO derivatives, DZ-1-TCO, DZ-Lys-TCO, and DZ-Lys-PEG4-TCO were administered to HeLa and U87MG xenograft-bearing nude mice (100 μL of 50 μM, n = 3 per group). In vivo fluorescence imaging was conducted at 4, 24, 48, 72, and 96 h after TCO compound injection.
(§2) Female BALB/c nude mice (4–6 weeks old; 14–20 g), obtained from Beijing Vital River Laboratory Animal Technology Co., Ltd. (Beijing, China), were subcutaneously inoculated with 5 × 10^6 HeLa or U87MG cells suspended in 100 μL PBS into the right flank. Tumor growth was monitored every 2–3 days using digital calipers, and experiments were initiated when tumor volumes reached approximately 150–300 mm^3, calculated using the formula Volume = (length × width^2)/2.
(§3) To assess the tumor-targeting capability and clearance kinetics of DZ-TCO precursors, 100 µL of each compound ([…] in PBS) was administered intravenously via the tail vein. Whole-body fluorescence imaging was performed at predetermined time points (4, 24, 48, 72, and 96 h post-injection) using the IVIS Spectrum imaging system (PerkinElmer, Shelton, CT, USA) (excitation/emission, 745/820 nm) with automatic subtraction of background fluorescence during the acquisition. Fluorescence signals were acquired under standardized exposure settings, and region-of-interest (ROI) analysis was conducted using Living Image software version 4.4 (PerkinElmer) to quantify fluorescence intensity in the tumor and major organs.

[2] = test system: HeLa and U87MG xenograft; assay: In vivo NIR fluorescence imaging, results not split by tumor model (organs, tumor-to-background ratios, retention); set-up: species or system mice; settings: for time of peak tumor fluorescence signal / tumor fluorescence signal remained detectable (time post-injection): post-injection
Protocol: as §1, §2
as §3, with “([…])” for “(4, 24, 48, 72, and 96 h post-injection)”

[3] = test system: U87MG xenograft; assay: In vivo NIR fluorescence imaging, U87MG xenograft-bearing nude mice
Protocol: as §1, §2, §3

Structure (SMILES) | tumor fluorescence intensity ([1]; 4 h post-injection) | tumor fluorescence intensity ([1]; 24 h post-injection) | tumor fluorescence intensity ([1]; 48 h post-injection) | tumor-to-background fluorescence ratio ([2]; 4 h) | tumor-to-background fluorescence ratio ([2]; 48 h) | time of peak tumor fluorescence signal [2] | tumor fluorescence signal remained detectable (time post-injection) [2] | tumor fluorescence intensity ([3]; 4 h post-injection) | tumor fluorescence intensity ([3]; 24 h post-injection) | tumor fluorescence intensity ([3]; 48 h post-injection) | tumor-to-background fluorescence ratio ([2]; 24 h)
CC1(C)C(=CC=C2CCCC(C=CC3=[N+](CCCCS(=O)(=O)[O-])c4ccccc4C3(C)C)=C2Cl)N(CCCCCC(=O)NCCCNC(=O)OC2CCC=CCCC2)c2ccccc21 (stereo not drawn) [DZ-1-TCO] | 6.38 × 10^9 p/s/cm^2/sr | 6.93 × 10^9 p/s/cm^2/sr | 5.57 × 10^9 p/s/cm^2/sr | 695.00 ± 59.15 | 720.00 ± 64.21 | 24 h | 72 h | 5.44 × 10^9 p/s/cm^2/sr | 6.12 × 10^9 p/s/cm^2/sr | 4.82 × 10^9 p/s/cm^2/sr | 
CC1(C)C(=CC=C2CCCC(C=CC3=[N+](CCCCS(=O)(=O)[O-])c4ccccc4C3(C)C)=C2Cl)N(CCCCCC(=O)NCCCCC(N)C(=O)NCCOCCOCCOCCOCCNC(=O)OC2CCC=CCCC2)c2ccccc21 (stereo not drawn) [DZ-Lys-PEG4-TCO] |  | 1.20 × 10^10 p/s/cm^2/sr |  | 737.00 ± 159.93 |  | 24 h | 96 h |  |  |  | 1303.33 ± 116.76

Reference: paper PMC12735951, “A Bioorthogonal TCO–Tetrazine-Based Pretargeted PET/NIRF Platform Enabling High-Contrast Tumor Imaging” (Pharmaceuticals, 2025)
